Source: patent US20110110890A1, “Novel Inhibitors of Hepatitis C Virus Replication” (INTERMUNE, INC., priority 2009, published 2011)

Columns and labels:
HCV NS5B polymerase = biological target: T1, HCV NS5B polymerase (Hepatitis C virus genotype 1a, UniProt P27958); assay: Replizyme HCV heterotemplate radioactive RNA-dependent RNA-polymerase (RdRp) assay; type: biochemical; settings: pre-incubated 30 minutes at 37° C., reaction 90 minutes at 37° C.; read-out: HCV NS5B inhibition EC50
T1 construct: pre-incubated with the RNA template and NS5B polymerase protein; purchased Replizyme
T1 sequence (P27958 2421-3011): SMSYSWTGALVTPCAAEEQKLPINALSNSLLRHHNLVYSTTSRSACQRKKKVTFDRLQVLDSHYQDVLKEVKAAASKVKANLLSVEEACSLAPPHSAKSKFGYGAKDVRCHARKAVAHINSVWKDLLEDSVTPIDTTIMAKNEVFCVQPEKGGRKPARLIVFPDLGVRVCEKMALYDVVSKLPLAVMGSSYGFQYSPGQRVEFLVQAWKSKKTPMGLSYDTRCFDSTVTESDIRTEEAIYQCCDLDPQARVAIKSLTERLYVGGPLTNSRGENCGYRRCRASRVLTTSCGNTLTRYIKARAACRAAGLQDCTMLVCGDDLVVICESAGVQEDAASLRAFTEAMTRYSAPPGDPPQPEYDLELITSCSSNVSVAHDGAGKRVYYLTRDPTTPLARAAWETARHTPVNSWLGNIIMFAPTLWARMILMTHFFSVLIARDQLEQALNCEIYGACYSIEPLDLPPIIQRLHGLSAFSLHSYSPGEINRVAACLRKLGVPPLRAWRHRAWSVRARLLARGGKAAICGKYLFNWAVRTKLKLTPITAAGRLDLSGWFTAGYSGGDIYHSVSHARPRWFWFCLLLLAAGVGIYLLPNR
Experimental: The compounds were tested in the Replizyme HCV heterotemplate radioactive RNA-dependent RNA-polymerase (RdRp) assay. The test compounds were pre-incubated with the RNA template and NS5B polymerase protein at 37° C. for 30 minutes. The RdRp reaction was initiated with the addition of the NTPs to the buffer-NS5B-compound mix, and was allowed to proceed for 90 minutes at 37° C. Control reactions included: no enzyme, 5% DMSO (test compound solvent), no compound/solvent, Cordycepin-TP and HCV-796 (IC50 values used as a reference inhibition). Radioactive products were collected by applying the stopped reaction to DE-81 paper, air dried prior to washing with buffer comprising NaH2PO4 and sodium pyrophosphate to remove unincorporated ^32P-GTP in the NTP mix, and rinsed with dH2O followed by 100% ethanol. The DE-81 paper was air dried, squares cut out and placed in scintillation tubes for counting.

HCV Replicon = HCV Replicon inhibition; type: cell-based; settings: Hepatitis C virus

CS(=O)(=O)Nc1ccc2c(c1)S(=O)(=O)N=C(c1c(O)n3cc(F)ccc3c(Cc3cc(F)cc(F)c3)c1=O)N2 [Compound 101]
EC50 (HCV NS5B polymerase): < 100 nM
EC50 (HCV Replicon): < 100 nM

CS(=O)(=O)Nc1ccc2c(c1)S(=O)(=O)N=C(c1c(O)n3cc(F)ccc3c(Cc3ccc(F)cc3)c1=O)N2 [Compound 103S]
EC50 (HCV NS5B polymerase): < 100 nM
EC50 (HCV Replicon): < 100 nM

CS(=O)(=O)Nc1ccc2c(c1)S(=O)(=O)N=C(c1c(O)n3cc(F)ccc3c(Cc3ccc(F)c(F)c3)c1=O)N2 [Compound 102S]
EC50 (HCV NS5B polymerase): < 100 nM
EC50 (HCV Replicon): < 100 nM

CC(C)(C)CCc1c(=O)c(C2=NS(=O)(=O)c3cc(NS(C)(=O)=O)ccc3N2)c(O)n2cc(F)ccc12 [Compound 104S]
EC50 (HCV NS5B polymerase): < 100 nM
EC50 (HCV Replicon): < 100 nM

CS(=O)(=O)Nc1ccc2c(c1)S(=O)(=O)N=C(c1c(O)n3ccccc3c(Cc3cc(F)cc(F)c3)c1=O)N2 [Compound 105S]
EC50 (HCV NS5B polymerase): < 100 nM
EC50 (HCV Replicon): < 100 nM
